Positions of bridges follow the written chain, without caps; N, C: chain ends. Residues, ends and D or L forms follow the SMILES beside them.
Legend:
A549 cell-line [1] = conditions: cited from earlier work
Description: (§1) In our search for bioactive metabolites from sponges found in Korean waters, we recently reported the structural determination of gombamide A, a cyclic thiohexapeptide from Clathria gombawuiensis. […] In our continuing search for bioactive metabolites in sponges, we report here the isolation and structural determinations of chujamides A (1) and B (2), new cyclic cystine bridged peptides from the sponge Suberites waedoensis (Figure 1). These proline- ...

K562 cell-line [2] = conditions: cited from earlier work
Description: as §1

Na+/K+-ATPase [3] = conditions: cited from earlier work
Description: as §1

K562 cell-line [4] = assay: Cytotoxicity assay, K562 cell line; assay type: cell-based; conditions: literature protocols [21],[22]
Description: (§2) The cytotoxicity assays were performed in accord with literature protocols. The Na^+/K^+-ATPase inhibition assay was performed according to the previously described method.

A549 cell-line [5] = assay: Cytotoxicity assay, A549 cell line; assay type: cell-based; conditions: literature protocols [21],[22]
Description: as §2

Na+/K+-ATPase [6] = assay: Na+/K+-ATPase inhibition assay; assay type: biochemical; conditions: previously described method [23]
Description: as §2

| Molecule | cytotoxicity against A549 (in words) (A549 cell-line [1]) | cytotoxicity against K562 (in words) (K562 cell-line [2]) | inhibitory activity against Na+/K+-ATPase (in words) (Na+/K+-ATPase [3]) | LC50, cytotoxicity toward K562 (K562 cell-line [4]) [µM] | LC50, cytotoxicity toward A549 (A549 cell-line [5]) [µM] | IC50 (Na+/K+-ATPase [6]) [µM] |
| --- | --- | --- | --- | --- | --- | --- |
| gombamide A | exhibited cytotoxicity | exhibited cytotoxicity | inhibitory activity |  |  |  |
| CC[C@H](C)[C@H](N)C(=O)N[C@H]1CSSC[C@@H](C(=O)O)NC(=O)[C@H]([C@@H](C)CC)NC(=O)[C@@H]2CCCN2C(=O)[C@H](CC(C)C)NC(=O)[C@H](Cc2ccccc2)NC(=O)[C@@H]2CCCN2C(=O)[C@@H]2CCCN2C(=O)[C@H](Cc2ccc(O)cc2)NC(=O)[C@@H]2CCCN2C1=O [Compound 2, chujamide B] (H-ICPYPPFLPIC-OH; disulfide 2-11) |  |  |  | 55.6 | 26.4 | 17.2 |
| CC[C@H](C)[C@H](NC(=O)CN)C(=O)N[C@H]1CSSC[C@@H](C(=O)O)NC(=O)[C@H]([C@@H](C)CC)NC(=O)[C@@H]2CCCN2C(=O)[C@H](CC(C)C)NC(=O)[C@H](Cc2ccccc2)NC(=O)[C@@H]2CCCN2C(=O)[C@@H]2CCCN2C(=O)[C@H](Cc2ccc(O)cc2)NC(=O)[C@@H]2CCCN2C1=O [Compound 1, chujamide A] (H-GICPYPPFLPIC-OH; disulfide 3-12) |  |  |  | 37.0 | 10.1 |  |
| COc1cccc2c1C(=O)c1c(O)c3c(c(O)c1C2=O)C[C@@](O)(C(=O)CO)C[C@@H]3O[C@H]1C[C@H](N)[C@H](O)[C@H](C)O1 [doxorubicin] |  |  |  | 1.5 | 1.3 |  |
